We go through 8 compounds from US11174245B2, “Benzimidazole compounds and derivatives as EGFR inhibitors” (Boehringer Ingelheim International GmbH, priority 2018, dated 2021).

The IC50 is the concentration that inhibits the measured activity by half.

For one assay, the target named is EGFR wt (Homo sapiens (Human), UniProt P00533). Nature of the assay: Biochemical EGFR inhibition assay (TR-FRET, poly-GT substrate), EGFR wt. The method in brief:
(§1)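 Phosphorylation of tagged poly-GT substrate by EGFR forms measured at 5 μM and 100 μM ATP (final). Top compound concentration 100 μM, eleven fivefold dilutions, in duplicate. Results given as IC50.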
On the technique in general: TR-FRET usually uses a lanthanide donor and a delayed reading to cut background.

Assay [1] has as its system Ba/F3 cells EGFR-indep. + IL-3. Nature of the assay: Ba/F3 proliferation assay (CellTiter-Glo viability), EGFR-independent cells with IL-3. The format is cell-based, murine. The note with it: Mus musculus, BaF3, Ba/F3 EGFR-independent + IL-3. As to the method: (§2) Plasmids containing EGFR mutants were obtained from GeneScript. To generate EGFR-dependent […] were transduced with retroviruses containing vectors that harbor EGFR isoforms. Platinum-E cells (Cell Biolabs) were used for retrovirus packaging. Retrovirus was added to Ba/F3 cells. To ensure infection, 4 μg/mL polybrene was added and cells were spinfected. Infection efficiency was confirmed by measuring GFP-positive cells using a cell analyzer. Cells with an infection efficiency of 10% to 20% were further cultivated and puromycin selection with 1 μg/mL was initiated. As a control, parental Ba/F3 cells were used to show selection status. Selection was considered successful when parental Ba/F3 cells cultures died. To evaluate the transforming potential of EGFR mutations, the growth medium was no longer supplemented with IL-3. Ba/F3 cells harboring the empty vector were used as a control. A switch from IL-3 to EGF was performed for Ba/F3 cells with the wildtype EGFR known for its dependency on EGF ligand. Approximately ten days before conducting the experiments, puromycin was left out. For proliferation assays (data in table 13), Ba/F3 cells were seeded into 96-well plates at 5×10^3 cells/100 μL in growth media. Compounds were added by using a HP D3000 Digital Dispenser. All treatments were performed in technical triplicates. Treated cells were incubated for 72 h at 37° C. with 5% CO2. CellTiter-Glo® Luminescent Cell Viability Assay (Promega) was performed and chemoluminescence was measured by using the multilabel Plate Reader VICTOR X4. The raw data were imported into and analyzed with the Boehringer Ingelheim proprietary software MegaLab (curve fitting based on the program PRISM, GraphPad Inc.).
(In ATP-based viability assays light output follows the ATP content of the culture.)

In assay [2] the test system is Ba/F3 cells driven by EGFR mutants. Nature of the assay: Ba/F3 proliferation assay (CellTiter-Glo viability), EGFR mutant alleles. The note with it: Mus musculus. Format: cell-based, murine. As to the method: (§3) Ba/F3 Cell Model Generation and Proliferation Assays
as §2

Assay [3] deals with EGFR del19 T790M C797S protein in Ba/F3 cells (Homo sapiens, UniProt P00533, C797S/DEL746-750/T790M). As to the kind of experiment: pEGFR assay (AlphaScreen Surefire, EGFR Tyr1068 phosphorylation). Format: cell-based. An outline of the steps: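 Transduced Ba/F3 cells, puromycin-selected and grown IL-3 independent, were treated with compound at 60.000 cells/well for 4 h at 37° C. Lysis followed for 20 min at room temperature, and Tyr1068 phospho-EGFR in lysate was detected after 2 h dark incubation. Results are IC50 values.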
For orientation: Bead proximity is the source of the signal in Alpha formats.

Assay [4] deals with EGFR (mutated) 695-1022, T790M, C797S, L858R (Homo sapiens (Human), UniProt P00533, C797S/L858R/T790M). As to the kind of experiment: Biochemical EGFR inhibition assay (TR-FRET, poly-GT substrate), EGFR T790M C797S L858R. The method in brief: as §1
For assay [5], the system named is Ba/F3 cells with the wildtype EGFR. As to the kind of experiment: Ba/F3 proliferation assay (CellTiter-Glo viability), wildtype EGFR with EGF. Format: cell-based, murine. The note with it: Mus musculus, BaF3, Ba/F3 EGFR wt. The protocol: as §3, §2
The subject of another assay is EGFR M+ NSCLC patients. The note with it: cited from earlier work; for objective response rate: EGFR M+ NSCLC patients treated in 1st line.
In assay [6] the test system is EGFR M+ T790M-positive NSCLC patients. The note with it: 2nd line, cited from earlier work.
The target in assay [7] is EGFR (d746-750 T790M C797S) (Homo sapiens (Human), UniProt P00533, C797S/DEL746-750/T790M). As to the kind of experiment: Biochemical EGFR inhibition assay (TR-FRET, poly-GT substrate), EGFR d746-750 T790M C797S. The note with it: 100 μM ATP. As to the method: Biochemical EGFR Inhibition Assays
Initially, the inhibitory effect of compounds according to the invention is measured in biochemical assays which measure the phosphorylation activity of EGFR enzyme forms on poly-GT substrate in the presence of different concentrations of ATP (5 μM and 100 μM final assay concentration).
The following enzyme forms of EGFR are representative examples that can be used in these assays at the given concentrations:
For the chosen highest assay concentration of 100 μM, 150 nL of compound solution is transferred from a 10 mM DMSO compound stock solution. A series of eleven fivefold dilutions per compound is transferred to the assay plate, compound dilutions are tested in duplicates. DMSO is added as backfill to a total volume of 150 nL. The assay runs on a fully automated robotic system.
These biochemical EGFR enzyme form compound dose-response assays quantify the kinase activity via phosphorylation of a tagged poly-GT substrate. The results of the assay are provided as IC50 values.

The mark [8] stands for this setting: read-out: wt (5 μM ATP) IC50, 5 μM ATP.
[9] abbreviates: read-out: wt (100 μM ATP) IC50, 100 μM ATP.
Setting [10] is: BaF3, Ba/F3 EGFR L858R C797S, read-out: IC50 EGFR L858R C797S.
[11] abbreviates: BaF3, Ba/F3 EGFR L858R T790M C797S, read-out: IC50 EGFR L858R T790M C797S.
[12] abbreviates: BaF3, Ba/F3 EGFR L858R T790M, read-out: IC50 EGFR L858R T790M.
Setting [13] is: BaF3, Ba/F3 EGFR L858R, read-out: IC50 EGFR L858R.
Setting [14] is: BaF3, Ba/F3 EGFR del19, read-out: IC50 EGFR del19.
Where [15] appears, read: BaF3, Ba/F3 EGFR del19 C797S, read-out: IC50 EGFR del19 C797S.
Where [16] appears, read: BaF3, Ba/F3 EGFR del19 T790M C797S, read-out: IC50 EGFR del19 T790M C797S.
The mark [17] stands for this setting: BaF3, Ba/F3 EGFR del19 T790M, read-out: IC50 EGFR del19 T790M.
The mark [18] stands for this setting: read-out: LR_TM_CS (5 μM ATP) IC50, 5 μM ATP.
Where [19] appears, read: read-out: LR_TM_CS (100 μM ATP) IC50, 100 μM ATP.

Read-outs that look alike come from different tables or passages of the source.

EGFR wt, sequence (P00533 25-1210): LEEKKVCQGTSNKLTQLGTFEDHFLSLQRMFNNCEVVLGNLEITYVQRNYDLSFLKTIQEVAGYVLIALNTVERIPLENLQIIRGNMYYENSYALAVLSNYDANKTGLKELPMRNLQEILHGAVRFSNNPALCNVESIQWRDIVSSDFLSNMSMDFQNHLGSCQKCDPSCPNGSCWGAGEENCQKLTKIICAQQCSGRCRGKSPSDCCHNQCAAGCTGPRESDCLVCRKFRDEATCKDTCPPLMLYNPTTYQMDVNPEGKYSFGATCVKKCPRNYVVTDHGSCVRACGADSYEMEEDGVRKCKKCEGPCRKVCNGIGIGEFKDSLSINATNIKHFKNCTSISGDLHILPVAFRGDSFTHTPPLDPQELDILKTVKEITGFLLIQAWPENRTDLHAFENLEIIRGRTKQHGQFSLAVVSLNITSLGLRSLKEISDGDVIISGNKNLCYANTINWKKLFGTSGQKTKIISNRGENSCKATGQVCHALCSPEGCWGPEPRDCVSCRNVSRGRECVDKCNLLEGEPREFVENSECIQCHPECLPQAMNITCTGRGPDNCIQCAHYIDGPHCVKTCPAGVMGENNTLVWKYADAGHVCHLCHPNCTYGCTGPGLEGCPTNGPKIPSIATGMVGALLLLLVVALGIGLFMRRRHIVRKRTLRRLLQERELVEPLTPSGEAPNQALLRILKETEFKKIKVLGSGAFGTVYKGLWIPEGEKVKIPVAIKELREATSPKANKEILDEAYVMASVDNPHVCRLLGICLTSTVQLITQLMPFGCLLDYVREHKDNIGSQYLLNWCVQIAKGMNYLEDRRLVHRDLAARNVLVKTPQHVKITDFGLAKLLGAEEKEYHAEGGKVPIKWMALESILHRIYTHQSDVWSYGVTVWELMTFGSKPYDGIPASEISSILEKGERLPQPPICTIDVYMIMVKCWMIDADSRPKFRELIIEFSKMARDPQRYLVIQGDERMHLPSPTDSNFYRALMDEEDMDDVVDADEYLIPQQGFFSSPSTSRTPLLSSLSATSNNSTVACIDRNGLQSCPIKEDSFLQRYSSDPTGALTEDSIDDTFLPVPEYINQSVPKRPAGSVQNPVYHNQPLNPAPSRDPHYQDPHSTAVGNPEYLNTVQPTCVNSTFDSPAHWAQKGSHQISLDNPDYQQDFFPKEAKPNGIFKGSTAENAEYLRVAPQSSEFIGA
EGFR del19 T790M C797S protein in Ba/F3 cells, sequence (P00533 with tags, fused parts or gaps C797S/DEL746-750/T790M limits assumed): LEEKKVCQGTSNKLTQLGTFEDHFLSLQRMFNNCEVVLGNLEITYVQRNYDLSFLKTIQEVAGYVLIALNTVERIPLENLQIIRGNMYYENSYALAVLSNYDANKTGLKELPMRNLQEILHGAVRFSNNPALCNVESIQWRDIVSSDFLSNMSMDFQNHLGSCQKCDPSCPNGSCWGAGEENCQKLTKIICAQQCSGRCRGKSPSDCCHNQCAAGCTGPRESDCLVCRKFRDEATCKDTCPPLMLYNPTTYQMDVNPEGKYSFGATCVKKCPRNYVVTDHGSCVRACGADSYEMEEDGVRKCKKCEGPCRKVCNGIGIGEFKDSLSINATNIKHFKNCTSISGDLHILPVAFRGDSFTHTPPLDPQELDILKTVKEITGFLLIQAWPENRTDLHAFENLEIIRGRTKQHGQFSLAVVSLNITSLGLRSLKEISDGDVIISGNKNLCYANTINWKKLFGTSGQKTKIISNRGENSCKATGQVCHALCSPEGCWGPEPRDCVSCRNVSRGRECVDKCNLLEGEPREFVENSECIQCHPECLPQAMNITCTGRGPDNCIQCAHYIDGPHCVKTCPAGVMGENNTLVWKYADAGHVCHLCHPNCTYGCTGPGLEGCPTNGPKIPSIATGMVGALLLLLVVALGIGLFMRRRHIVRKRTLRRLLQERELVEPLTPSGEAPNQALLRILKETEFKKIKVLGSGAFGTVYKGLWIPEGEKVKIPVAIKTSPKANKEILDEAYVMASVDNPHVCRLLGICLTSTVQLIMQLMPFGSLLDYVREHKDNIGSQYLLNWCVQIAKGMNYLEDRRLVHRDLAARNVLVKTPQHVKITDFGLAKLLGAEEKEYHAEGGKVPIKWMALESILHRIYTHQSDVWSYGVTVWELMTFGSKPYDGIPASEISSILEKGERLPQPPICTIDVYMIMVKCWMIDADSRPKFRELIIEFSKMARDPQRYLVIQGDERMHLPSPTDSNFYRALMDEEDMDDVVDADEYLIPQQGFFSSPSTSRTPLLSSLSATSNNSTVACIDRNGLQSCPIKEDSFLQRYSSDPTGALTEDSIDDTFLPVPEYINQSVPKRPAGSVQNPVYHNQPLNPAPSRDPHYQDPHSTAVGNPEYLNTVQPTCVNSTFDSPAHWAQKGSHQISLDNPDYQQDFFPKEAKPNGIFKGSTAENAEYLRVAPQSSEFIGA
EGFR (mutated) 695-1022, T790M, C797S, L858R, sequence (P00533 695-1022 T790M/C797S/L858R): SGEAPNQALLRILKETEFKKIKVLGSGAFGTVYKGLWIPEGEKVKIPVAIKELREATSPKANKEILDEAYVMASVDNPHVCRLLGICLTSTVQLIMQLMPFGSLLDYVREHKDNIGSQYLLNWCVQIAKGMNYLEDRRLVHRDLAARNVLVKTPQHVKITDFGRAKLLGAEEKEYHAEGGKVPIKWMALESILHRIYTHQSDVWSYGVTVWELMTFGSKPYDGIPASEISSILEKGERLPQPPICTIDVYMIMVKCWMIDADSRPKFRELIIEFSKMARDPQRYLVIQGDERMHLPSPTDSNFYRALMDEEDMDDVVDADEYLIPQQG
EGFR (d746-750 T790M C797S), sequence (P00533 other isoform, or with tags, fused parts or gaps T790M/C797S/del 1-694/del 746-750 limits assumed): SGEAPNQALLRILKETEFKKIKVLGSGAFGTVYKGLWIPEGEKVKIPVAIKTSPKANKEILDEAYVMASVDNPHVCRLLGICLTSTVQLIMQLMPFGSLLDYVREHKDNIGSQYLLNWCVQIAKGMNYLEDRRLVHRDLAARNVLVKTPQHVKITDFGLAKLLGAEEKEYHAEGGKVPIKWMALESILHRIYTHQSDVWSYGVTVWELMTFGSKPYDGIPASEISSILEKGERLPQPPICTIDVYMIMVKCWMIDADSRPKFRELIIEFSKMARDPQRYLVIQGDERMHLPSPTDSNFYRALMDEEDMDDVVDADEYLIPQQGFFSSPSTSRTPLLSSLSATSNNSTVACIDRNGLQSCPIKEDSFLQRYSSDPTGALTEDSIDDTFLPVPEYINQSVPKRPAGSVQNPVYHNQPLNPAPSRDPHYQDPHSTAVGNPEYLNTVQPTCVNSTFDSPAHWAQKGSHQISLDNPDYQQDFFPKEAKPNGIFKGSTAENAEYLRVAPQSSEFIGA

Turning to `Cn1cc(-c2cc(C(=O)/N=c3\[nH]c4ccccc4n3[C@H]3CC[C@@H](O)CC3)ccn2)cn1` [I-048], the IC50 at EGFR wt (setting [8]) came to 0.0323 µM; at EGFR wt (setting [9]), 1.31 µM; in assay [1], 7.94 µM; in [2] (setting [10]), 0.0521 µM; in assay [2] (setting [11]), 0.0482 µM; in assay [2] (setting [12]), 0.0794 µM. The IC50 in assay [2] (setting [13]) is 0.0392 µM; in assay [2] (setting [14]) it was 0.0109 µM; in [2] (setting [15]), 0.0091 µM; in assay [2] (setting [16]) it was 0.012 µM; in [2] (setting [17]), 0.0329 µM; in [3], 0.001 µM. The concentration for half-maximal inhibition (IC50) stood at 0.0004 µM in assay [4] (setting [18]), 0.0057 µM in assay [4] (setting [19]) and 0.54 µM in assay [5].

Take `Cc1cc(C(=O)Nc2nc3cccc(Cl)c3n2[C@@H]2CCCCN(C(=O)/C=C/CN(C)C)C2)ccn1` [nazartinib, reference compound]: the IC50 is above 5 µM in [1] and 0.0951 µM in [5].

Consider `C=CC(=O)Nc1cc(Nc2nccc(-c3cn(C)c4ccccc34)n2)c(OC)cc1N(C)CCN(C)C` [osimertinib], for which the objective response rate in the assay on EGFR M+ NSCLC patients is 60-85%. The “average duration until disease progression” value with EGFR M+ NSCLC patients (previously untreated EGFR M+ NSCLC patients) was 19 months; in [6], 10 months. Also, the “patients responding to treatment” value in [6] (previously treated with earlier generation EGFR TKI) is “Approximately 70%”.

As for `COc1cc2ncnc(Nc3ccc(F)c(Cl)c3)c2cc1NC(=O)/C=C/CN1CCCCC1` [dacomitinib, reference compound], in [5], the IC50 came out at 0.00064 µM.

`C#Cc1cccc(Nc2ncnc3cc(OCCOC)c(OCCOC)cc23)c1` [erlotinib]: the objective response rate in the assay on EGFR M+ NSCLC patients is 60-85%.

As to `Cn1cc(-c2cc(C(=O)/N=c3\[nH]c4ccccc4n3C3CCCCC3)ccn2)cn1` [I-015], the IC50 at EGFR wt (setting [8]) was found to be 0.125 µM; at EGFR wt (setting [9]), 0.114 µM; in assay [1], 6.52 µM; in assay [2] (setting [10]) it was 0.29 µM; in assay [2] (setting [11]) it was 0.284 µM; in assay [2] (setting [12]) it was 0.408 µM. For the same compound, the IC50 in assay [2] (setting [13]) was 0.274 µM; in assay [2] (setting [14]) it was 0.0458 µM; in assay [2] (setting [15]), 0.0211 µM; in assay [2] (setting [16]), 0.047 µM; in [2] (setting [17]), 0.169 µM; in [7], 0.002 µM. The IC50 was 0.009 µM in assay [3], 0.0008 µM in assay [4] (setting [18]), 0.0105 µM in assay [4] (setting [19]) and 2.22 µM in [5].

On to `COc1ccccc1-c1cc(C(=O)/N=c2\[nH]c3cc(C)ccc3n2[C@H]2CC[C@@H](O)CC2)ccn1` [I-109], for which the IC50 was determined as 0.0125 µM at EGFR wt (setting [8]); 0.549 µM at EGFR wt (setting [9]); 8.65 µM in assay [1]; 0.0515 µM in assay [2] (setting [10]); 0.146 µM in [2] (setting [11]); 0.177 µM in assay [2] (setting [12]). The half-maximal inhibitory concentration (IC50) in assay [2] (setting [13]) was found to be 0.0383 µM; in assay [2] (setting [14]) it was 0.0091 µM; in [2] (setting [15]), 0.007 µM; in assay [2] (setting [16]), 0.0235 µM; in assay [2] (setting [17]) it was 0.0529 µM; in assay [3], 0.004 µM. For the same compound, the figures for the IC50 in assay [4] (setting [18]), in assay [4] (setting [19]) and in [5] were 0.0005 µM, 0.0088 µM and 0.728 µM, respectively.

In the case of `Cn1cc(-c2cc(C(=O)/N=c3\[nH]c4ccccc4n3[C@H]3CCC[C@H](O)C3)ccn2)cn1` [I-137], the IC50 at EGFR wt (setting [8]) was found to be 0.108 µM; in assay [1] it was 9.06 µM; in assay [2] (setting [10]) it was 0.1 µM; in assay [2] (setting [11]), 0.137 µM; in assay [2] (setting [12]), 0.178 µM; in [2] (setting [13]) it was 0.0916 µM. For the same compound, the IC50 in assay [2] (setting [14]) amounted to 0.0166 µM; in assay [2] (setting [15]), 0.0087 µM; in assay [2] (setting [16]), 0.0207 µM; in assay [2] (setting [17]), 0.072 µM; in assay [3] it was 0.002 µM; in assay [4] (setting [18]), 0.0008 µM. Moreover, the IC50 in assay [5] was determined as 2.06 µM.
